Reference: the supplement of paper PMC10307832

Columns and labels:
Test in all cases: relative viability (nuclei count vs DMSO), 5 days (fraction); higher = more cells survive
NCI-H23 = system: NCI-H23
How it was run: (§1)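 Relative viability equals treated-well nuclei counts divided by vehicle-well nuclei counts. Counts came from 4× images of lung cancer cell lines grown in 1536-well plates for 5 days after pin-tool dosing on the day after seeding. Dosing used one drug alone or a fixed anchor-drug dose plus five library-drug doses (not always all listed) in √10 steps, and values are medians of duplicate plates.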

SK-LU-1 = system: SK-LU-1
How it was run: as §1

LK-2 = system: LK-2
How it was run: as §1

LU99A = system: LU99A
How it was run: as §1

EKVX = system: EKVX
How it was run: as §1

NCI-H322M = system: NCI-H322M
How it was run: as §1

RERF-LC-KJ = system: RERF-LC-KJ
How it was run: as §1

NCI-H1666 = system: NCI-H1666
How it was run: as §1

EMC-BAC-2 = system: EMC-BAC-2
How it was run: as §1

NCI-H1975 = details: first compound 0.01 µM
How it was run: as §1

SMILES: CCN(CC)CCCCNc1ncc2cc(-c3cc(OC)cc(OC)c3)c(NC(=O)NC(C)(C)C)nc2n1 + CC1(C)CCC(c2ccc(Cl)cc2)=C(CN2CCN(c3ccc(C(=O)NS(=O)(=O)c4ccc(N[C@H](CCN5CCOCC5)CSc5ccccc5)c(S(=O)(=O)C(F)(F)F)c4)cc3)CC2)C1 [Navitoclax] (partner 0.5 µM)
- relative viability (NCI-H23; first compound 0.01 µM): 0.744
- relative viability (NCI-H23; first compound 0.03162 µM): 0.85
- relative viability (NCI-H23; first compound 0.1 µM): 1.09
- relative viability (NCI-H23; first compound 0.3162 µM): 0.921
- relative viability (NCI-H23; first compound 1 µM): 0.843
- relative viability (SK-LU-1; first compound 0.01 µM): 1.02
- relative viability (SK-LU-1; first compound 0.03162 µM): 0.894
- relative viability (SK-LU-1; first compound 0.1 µM): 1.08
- relative viability (SK-LU-1; first compound 0.3162 µM): 1.18
- relative viability (SK-LU-1; first compound 1 µM): 0.639
- relative viability (LK-2; first compound 0.01 µM): 0.918
- relative viability (LK-2; first compound 0.03162 µM): 0.841
- relative viability (LK-2; first compound 0.1 µM): 0.8
- relative viability (LK-2; first compound 0.3162 µM): 0.732
- relative viability (LK-2; first compound 1 µM): 0.36
- relative viability (LU99A; first compound 0.01 µM): 0.716
- relative viability (LU99A; first compound 0.03162 µM): 0.862
- relative viability (LU99A; first compound 0.1 µM): 0.949
- relative viability (LU99A; first compound 0.3162 µM): 0.85
- relative viability (LU99A; first compound 1 µM): 0.69
- relative viability (EKVX; first compound 0.01 µM): 0.946
- relative viability (EKVX; first compound 0.03162 µM): 0.851
- relative viability (EKVX; first compound 0.1 µM): 1.01
- relative viability (EKVX; first compound 0.3162 µM): 1.04
- relative viability (EKVX; first compound 1 µM): 0.968
- relative viability (NCI-H322M; first compound 0.01 µM): 1.26
- relative viability (NCI-H322M; first compound 0.03162 µM): 1.29
- relative viability (NCI-H322M; first compound 0.1 µM): 1.23
- relative viability (NCI-H322M; first compound 0.3162 µM): 1.22
- relative viability (NCI-H322M; first compound 1 µM): 1.2
- relative viability (RERF-LC-KJ; first compound 0.01 µM): 0.996
- relative viability (RERF-LC-KJ; first compound 0.03162 µM): 0.851
- relative viability (RERF-LC-KJ; first compound 0.1 µM): 0.925
- relative viability (RERF-LC-KJ; first compound 0.3162 µM): 1.09
- relative viability (RERF-LC-KJ; first compound 1 µM): 0.997
- relative viability (NCI-H1666; first compound 0.01 µM): 1.03
- relative viability (NCI-H1666; first compound 0.03162 µM): 1.02
- relative viability (NCI-H1666; first compound 0.1 µM): 0.972
- relative viability (NCI-H1666; first compound 0.3162 µM): 1.12
- relative viability (NCI-H1666; first compound 1 µM): 0.871
- relative viability (EMC-BAC-2; first compound 0.01 µM): 1.38
- relative viability (EMC-BAC-2; first compound 0.03162 µM): 1.24
- relative viability (EMC-BAC-2; first compound 0.1 µM): 1.24
- relative viability (EMC-BAC-2; first compound 0.3162 µM): 1.28
- relative viability (EMC-BAC-2; first compound 1 µM): 0.899
- relative viability (NCI-H1975): 1.14
